Laboratory results from ChEMBL document CHEMBL1201862, “PubChem BioAssay data set” (2004).
Calls of active or inactive are those of the source.

Experiments:
[1] = microbe, parasite or virus in culture; assay type: functional; settings: Mycobacterium tuberculosis
[2] = molecular target: T1, Ubiquitin-conjugating enzyme E2 N (Homo sapiens, UniProt P61088); assay type: functional;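 note: Dose-response confirmation in a TR-FRET assay detecting UBC13-driven polyubiquitin chain formation, inhibition measured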
T1 sequence (P61088 whole entry): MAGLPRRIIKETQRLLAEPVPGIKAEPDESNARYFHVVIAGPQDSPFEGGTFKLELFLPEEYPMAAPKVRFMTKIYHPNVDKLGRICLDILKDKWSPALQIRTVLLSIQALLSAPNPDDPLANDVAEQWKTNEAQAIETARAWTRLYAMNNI

[3] = HEp-2 cell cytotoxicity, dose response, cytotoxicity control for RSV inhibitor project, HTS (AID 2410); assay type: functional; settings: human respiratory syncytial virus
H9c2 = assay: cells; assay type: functional, cell-based; settings: Rattus norvegicus, H9c2, Myocardium;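 note: confirmatory concentration-response retest of ultra-high-throughput screening hits for modulation of myocardial damage; cell death induced by hydrogen peroxide oxidative stress; compound pretreatment for 60 min then peroxide exposure for 2 h; potency is for protecting the cells against peroxide damage rather than for killing them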
[4] = molecular target: FAD-linked sulfhydryl oxidase ALR (Homo sapiens, UniProt P55789); assay: inhibitors of human ALR sulfhydryl oxidase, dose response, biochemical, H2O2 detection, luminescence, cherry-pick (AID 493248)
Cytochrome P450 2D6 = Cytochrome P450 2D6 (Homo sapiens, UniProt P10635);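 note: CYP2D6 member of a cytochrome P450 panel assay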
Cytochrome P450 1A2 = molecular target: T2, Cytochrome P450 1A2 (Homo sapiens, UniProt P05177);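 note: PubChem cytochrome P450 panel assay, CYP1A2 panel member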
T2 sequence (P05177 whole entry): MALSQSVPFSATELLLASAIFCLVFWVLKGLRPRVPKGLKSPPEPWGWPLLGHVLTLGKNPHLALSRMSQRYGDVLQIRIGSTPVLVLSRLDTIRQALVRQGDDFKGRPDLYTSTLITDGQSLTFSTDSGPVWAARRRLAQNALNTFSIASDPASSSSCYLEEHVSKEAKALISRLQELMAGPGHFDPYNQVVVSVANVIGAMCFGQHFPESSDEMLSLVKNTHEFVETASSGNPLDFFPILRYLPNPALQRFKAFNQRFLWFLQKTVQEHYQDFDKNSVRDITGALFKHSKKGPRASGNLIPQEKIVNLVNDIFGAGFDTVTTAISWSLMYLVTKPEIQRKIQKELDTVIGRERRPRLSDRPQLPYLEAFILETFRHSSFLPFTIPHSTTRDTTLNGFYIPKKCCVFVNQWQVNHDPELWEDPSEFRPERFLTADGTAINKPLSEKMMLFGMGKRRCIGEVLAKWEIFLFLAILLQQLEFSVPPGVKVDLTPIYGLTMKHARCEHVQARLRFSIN

[5] = C. albicans growth with fluconazole, confirmation, fluorescence, retest (AID 2467); assay type: functional, cell-based
[6] = NIH-3T3 fibroblast cytotoxicity, dose response, cytotoxicity control, cell-based, fluorescence, Alamar Blue, secondary assay (AID 2327); assay type: functional;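 note: NIH-3T3 mouse fibroblasts cultured with fluconazole at 8 µg/mL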
[7] = inhibitors of intracellular T. cruzi replication, confirmation, NIH3T3 host cells, beta-gal luminescence (AID 2044); assay type: functional, cell-based;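 note: intracellular parasites grown in NIH/3T3 mouse fibroblasts as host cells; luminescent beta-galactosidase reporter signal from transgenic T. cruzi replicating inside host cells; inhibitors lower the luminescence signal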
[8] = test system: Streptococcus sp. 'group A'; assay: growth inhibition of control SK(-) GAS strain, dose response, counter-screen for streptokinase expression inhibitor project, luminescence, kanamycin, BacTiterGlo, confirmation (AID 1900); assay type: functional, organism-based
[9] = cytotoxicity toward NIH3T3 fibroblasts, dose response, counter-screen, cell-based, ATP luminescence, mouse fibroblasts (AID 2010); assay type: functional;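 note: cells exposed to compound for about 90 hours before reading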
[10] = growth suppression of PTEN-null colon cells, dose response, cell-based, HCT116 PTEN knockout (AID 1047); assay type: functional;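 note: HCT116 colon tumor cells with PTEN knocked out; cells exposed to compound for 60 hours before readout; potency for loss of cell viability measured by luminescence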
[11] = growth suppression of beta-catenin-knockout colon cells, dose response, cell-based, HCT116, human colon tumor (AID 1045); assay type: functional;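 note: HCT116 colon tumor cells with beta catenin knocked out; cells exposed to compound for 60 hours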
Streptokinase A = molecular target: T3, Streptokinase A (Streptococcus pyogenes serotype M1, UniProt P10520); assay: S. pyogenes streptokinase expression inhibitors, potency, dose response, plasminogen activation absorbance, OD405 (AID 1914); assay type: functional, Streptococcus pyogenes M1 GAS;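 note: secreted streptokinase activity via plasminogen activation per viability signal from cell pellet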
T3 sequence (P10520 whole entry): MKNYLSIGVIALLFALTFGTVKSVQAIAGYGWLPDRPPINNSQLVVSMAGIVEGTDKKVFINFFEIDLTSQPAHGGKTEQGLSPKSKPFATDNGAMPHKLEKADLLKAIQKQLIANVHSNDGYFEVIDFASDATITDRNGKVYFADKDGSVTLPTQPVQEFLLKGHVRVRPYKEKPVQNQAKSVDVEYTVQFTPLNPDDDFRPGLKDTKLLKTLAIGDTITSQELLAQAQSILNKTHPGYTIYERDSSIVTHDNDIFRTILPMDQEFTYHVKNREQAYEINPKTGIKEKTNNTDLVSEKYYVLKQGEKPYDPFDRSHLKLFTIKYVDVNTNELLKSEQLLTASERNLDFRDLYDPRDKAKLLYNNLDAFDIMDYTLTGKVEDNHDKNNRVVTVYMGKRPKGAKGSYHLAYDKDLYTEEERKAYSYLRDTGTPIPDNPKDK

Streptococcus = assay: Group A Streptococcus viability loss, dose response, counter-screen for streptokinase expression inhibitor project, luminescence, BacTiterGlo (AID 1915); assay type: functional, organism-based;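 note: potency for reduction of bacterial viability or growth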

FAD-linked sulfhydryl oxidase ALR, sequence (P55789 whole entry): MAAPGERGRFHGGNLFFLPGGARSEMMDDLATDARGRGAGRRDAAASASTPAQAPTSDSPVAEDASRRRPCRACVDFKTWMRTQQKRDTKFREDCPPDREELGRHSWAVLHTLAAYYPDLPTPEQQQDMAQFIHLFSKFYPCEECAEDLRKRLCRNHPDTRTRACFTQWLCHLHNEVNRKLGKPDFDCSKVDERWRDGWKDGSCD
Cytochrome P450 2D6, sequence (P10635 whole entry): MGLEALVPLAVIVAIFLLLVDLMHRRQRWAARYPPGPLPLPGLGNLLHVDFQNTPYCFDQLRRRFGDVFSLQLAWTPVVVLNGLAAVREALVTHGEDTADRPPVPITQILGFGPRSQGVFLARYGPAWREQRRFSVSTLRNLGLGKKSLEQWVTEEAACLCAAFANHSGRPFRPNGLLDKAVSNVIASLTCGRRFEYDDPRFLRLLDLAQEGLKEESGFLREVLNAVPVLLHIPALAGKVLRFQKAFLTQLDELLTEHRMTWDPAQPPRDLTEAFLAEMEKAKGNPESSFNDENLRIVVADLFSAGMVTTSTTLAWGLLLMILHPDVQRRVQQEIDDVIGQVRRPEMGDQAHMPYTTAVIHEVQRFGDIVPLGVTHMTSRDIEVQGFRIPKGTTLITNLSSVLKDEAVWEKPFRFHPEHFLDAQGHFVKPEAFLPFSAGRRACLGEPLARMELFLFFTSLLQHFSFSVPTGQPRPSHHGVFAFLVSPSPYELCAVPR

O=C(Nc1ccc(OC(F)(F)F)cc1)c1ccc2c(c1)no[n+]2[O-]
CC50 [1]: 20.6 µM (active)

CC(=O)c1ccccc1OCC(O)CN1CCN(CCN2C(=O)c3cccc4cccc(c34)C2=O)CC1 (configuration not stated)
IC50 [2]: > 20 µM (inactive)
CC50 [3]: > 50 µM (active)
IC50 (H9c2): 23.1 µM (active)

Cc1ccc(S(=O)(=O)NNC(=O)NC23CC4CC(CC(C4)C2)C3)cc1
AC50 [4]: 1.02 µM (active)

O=C(NC(=S)Nc1ccc(N2CCN(C(=O)c3ccccc3)CC2)cc1)c1cccs1
IC50 [2]: > 20 µM (inactive)

CN(C)CCNc1oc(COc2ccc(Cl)cc2Cl)nc1C#N
IC50 [2]: > 20 µM (inactive)
AC50 (Cytochrome P450 2D6): 14.1 µM (inconclusive)
AC50 (Cytochrome P450 1A2): 25.1 µM (inconclusive)

O=C(/C=C/c1ccco1)Nc1cccc(-c2nc3ccccc3[nH]2)c1
EC50 [5]: 1.86 µM (active)
EC50 [6]: > 150 µM (inactive)
CC50 [1]: 30.8 µM (active)

O=C(NCSc1ccncn1)c1ccccc1
AC50 [4]: 1.49 µM (active)

C#CCOCCOCCOCCNc1nc(N2CCN(C(=O)[C@H]([C@@H](C)CC)n3cc([C@@H](N)CC(C)C)nn3)CC2)nc(N2CCN(C(=O)[C@H]([C@@H](C)CC)n3cc([C@@H](N)CC(C)C)nn3)CC2)n1
IC50 [2]: > 20 µM (inactive)

Cc1ccc(OCCCC(=O)NNC(=O)c2ccccn2)cc1
IC50 [2]: > 20 µM (inactive)

OC(CNCC1CCCO1)Cn1c2ccc(Br)cc2c2cc(Br)ccc21 (configuration not stated)
EC50 [7]: 533 nM (active)
EC50 [8]: 3.18 µM (active)
EC50 [5]: > 38 µM (not active)
EC50 [9]: > 60 µM (inconclusive)
EC50 [10]: 4.41 µM (active)
EC50 [6]: 9.05 µM (inconclusive)
EC50 [11]: 4.46 µM (active)
EC50 (Streptokinase A): 7.22 µM (active)
EC50 (Streptococcus): 8.12 µM (active)

CC(=O)OC[C@H]1O[C@@H](O[C@@H]2C[C@H]3C(C)(C)[C@H](OC(C)=O)CC[C@]3(C)[C@H]3CC[C@]45C[C@]4(CC[C@H]5[C@@H](C)C[C@@H](O)[C@H](O)C(C)(C)O)[C@@]32C)[C@H](O)[C@@H](O)[C@@H]1O [CUMINGIANOSIDE A]
EC50 [10]: 8.19 µM (active)
EC50 [11]: 8.05 µM (active)
CC50 [1]: 27.7 µM (active)
